For this assay, the target named is human activated kallikrein enzyme (Homo sapiens, UniProt P03952). As to the kind of experiment: Inhibition of human activated plasma kallikrein, fluorogenic PFR-AMC substrate, 500 pM enzyme format. The assay is classed as biochemical. Conditions: 300 μM PFR-AMC, 30 min preincubation, 10 min room temperature, pH 7.5. The method in brief: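 500 pM activated kallikrein preincubated 30 min at room temperature with inhibitors in pH 7.5 Tris/EDTA/NaCl buffer with PEG-400 and Triton X-100. Reaction started with 300 μM PFR-AMC, run 10 min at room temperature; AMC fluorescence read at ex 380/em 460 nm.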
Chain of human activated kallikrein enzyme (P03952 391-638 limits assumed): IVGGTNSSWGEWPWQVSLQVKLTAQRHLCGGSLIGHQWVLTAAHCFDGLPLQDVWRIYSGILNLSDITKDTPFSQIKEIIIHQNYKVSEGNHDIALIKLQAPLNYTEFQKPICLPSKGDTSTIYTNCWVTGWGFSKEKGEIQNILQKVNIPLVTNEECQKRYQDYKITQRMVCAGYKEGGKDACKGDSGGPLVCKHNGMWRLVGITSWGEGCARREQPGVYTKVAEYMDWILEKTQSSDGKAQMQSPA
Chain of human activated kallikrein enzyme (P03952 20-390 partner limits assumed): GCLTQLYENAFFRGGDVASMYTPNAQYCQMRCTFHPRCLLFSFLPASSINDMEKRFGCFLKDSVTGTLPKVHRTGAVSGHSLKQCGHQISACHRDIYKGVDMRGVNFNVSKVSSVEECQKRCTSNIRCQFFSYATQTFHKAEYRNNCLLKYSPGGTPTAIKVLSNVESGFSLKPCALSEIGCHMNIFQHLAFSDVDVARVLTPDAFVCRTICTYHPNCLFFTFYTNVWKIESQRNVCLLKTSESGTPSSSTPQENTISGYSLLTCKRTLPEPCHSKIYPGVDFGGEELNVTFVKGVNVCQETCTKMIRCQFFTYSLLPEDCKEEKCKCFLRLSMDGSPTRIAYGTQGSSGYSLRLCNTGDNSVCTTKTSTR

Setting [1] is: 500 pM activated kallikrein, read-out: Primary Dose Response Assay: Average EC50.

For orientation: EC50 means the midpoint of the concentration-response curve.

Counter-ions that a name gives are not always drawn. Like-named read-outs stand apart in the source and are kept apart here.

On to `Cc1cc2c(N)nccc2c(C)c1CNc1cc(NC(C)c2ccc(Cc3ccccn3)cc2)ncn1` (stereo not drawn) [Example 366, N^4-((1-amino-5,7-dimethylisoquinolin-6-yl)methyl)-N^6-(1-(4-(pyridin-2-ylmethyl)phenyl)ethyl)pyrimidine-4,6-diamine], for which the EC50 under setting [1] is less than 1 nM.

Take `Cc1cc(CNc2cc(NCc3c(C)cc4c(N)nccc4c3C)ncn2)cc(C)c1Cn1cccn1` [Example 367, N^4-(4-((1H-pyrazol-1-yl)methyl)-3,5-dimethylbenzyl)-N^6-((1-amino-5,7-dimethylisoquinolin-6-yl)methyl)pyrimidine-4,6-diamine]: the EC50 under setting [1] is less than 1 nM.

Turning to `Cc1cc(CNc2cc(NCc3c(C)cc4c(N)nccc4c3C)ncn2)cc(C)c1Cc1ccccn1` [Example 368, N^4-((1-amino-5,7-dimethylisoquinolin-6-yl)methyl)-N^6-(3,5-dimethyl-4-(pyridin-2-ylmethyl)benzyl)pyrimidine-4,6-diamine], the EC50 under setting [1] was less than 1 nM.

With `Cc1cc2c(N)nccc2c(C)c1CNc1cc(NCc2ccc(Cc3ccc(Cl)cn3)cc2)ncn1` [Example 369, N^4-((1-amino-5,7-dimethylisoquinolin-6-yl)methyl)-N^6(4-((5-chloropyridin-2-yl)methyl)benzyl)pyrimidine-4,6-diamine], the concentration for a half-maximal effect (EC50) under setting [1] was in the range of 1 to 10 nM.

Consider `Cc1cc2c(N)nccc2c(C)c1CNc1cc(OCc2cccc(-n3ccccc3=O)c2)ncn1` [Example 370, 1-(3-(((6-(((1-amino-5,7-dimethylisoquinolin-6-yl)methyl)amino)pyrimidin-4-yl)oxy)methyl)phenyl)pyridin-2(1H)-one], for which, under setting [1], the EC50 was 100 to 1000 nM.

On to `Cc1ccc2ncc(COc3cc(NCc4c(C)cc5c(N)nccc5c4C)ncn3)cc2c1` [Example 372, 5,7-dimethyl-6-(((6-((6-methylquinolin-3-yl)methoxy)pyrimidin-4-yl)amino)methyl)isoquinolin-1-amine formic acid salt], for which the EC50 under setting [1] is 1 to 10 nM.

With `Cc1cc2c(N)nccc2c(C)c1CNc1cc(OCc2ccc3ncccc3c2)ncn1` [Example 374, 5,7-dimethyl-6-(((6-(quinolin-6-ylmethoxy)pyrimidin-4-yl)amino)methyl)isoquinolin-1-amine], under setting [1], the EC50 lay in the range of 10 to 100 nM.

`Cc1cc2c(N)nccc2c(C)c1CNc1cc(NCc2ccc(CC(=O)N(C)C)cc2)ncn1` [Example 375, 2-(4-(((6-(((1-amino-5,7-dimethylisoquinolin-6-yl)methyl)amino)pyrimidin-4-yl)amino)methyl)phenyl)-N,N-dimethylacetamide] returned an EC50 (Primary Dose Response Assay: Average EC50, 500 pM activated kallikrein) of less than 1 nM.

On to `Cc1cc2c(N)nccc2c(C)c1CNc1nncc(NCc2ccc(Cn3cccn3)cc2)n1` [Example 376, N^5-(4-((1H-pyrazol-1-yl)methyl)benzyl)-N^3-((1-amino-5,7-dimethylisoquinolin-6-yl)methyl)-1,2,4-triazine-3,5-diamine], for which the EC50 under setting [1] is less than 1 nM.

Consider `Cc1cc2c(N)nccc2c(C)c1CNc1cc(NCc2ccc(OCC(=O)N(C)C)cc2)ncn1` [Example 377, 2-(4-(((6-(((1-amino-5,7-dimethylisoquinolin-6-yl)methyl)amino)pyrimidin-4-yl)amino)methyl)phenoxy)-N,N-dimethylacetamide], for which the EC50 under setting [1] is less than 1 nM.

Turning to `Cc1cc2c(N)nccc2c(C)c1CNc1cc(NCc2ccc(CC(=O)N3CC4CC4C3)cc2)ncn1` (stereo not drawn) [Example 378, 2-(4-(((6-(((1-amino-5,7-dimethylisoquinolin-6-yl)methyl)amino)pyrimidin-4-yl)amino)methyl)phenyl)-1-(3-azabicyclo[3.1.0]hexan-3-yl)ethan-1-one], under setting [1], the EC50 is less than 1 nM.

Take `Cc1cc2c(N)nccc2c(C)c1CNc1cc(NCc2ccc(Cn3cccn3)cc2F)ncn1` [Example 379, N^4-(4-((1H-pyrazol-1-yl)methyl)-2-fluorobenzyl)-N^6-((1-amino-5,7-dimethylisoquinolin-6-yl)methyl)pyrimidine-4,6-diamine]: under setting [1], the EC50 was less than 1 nM.

Regarding `Cc1cc2c(N)nccc2c(C)c1CNc1cc(NCc2ccc(Cn3cccn3)cc2C(F)(F)F)ncn1` [Example 380, N^4-(4-((1H-pyrazol-1-yl)methyl)-2-(trifluoromethyl)benzyl)-N^6-((1-amino-5,7-dimethylisoquinolin-6-yl)methyl)pyrimidine-4,6-diamine], under setting [1], the EC50 was 1 to 10 nM.

Consider `Cc1cc2c(N)nccc2c(C)c1CNc1cc(N(Cc2ccc(Cn3cccn3)cc2C(F)(F)F)N=O)ncn1` [Example 381, N-(4-((1H-pyrazol-1-yl)methyl)-2-(trifluoromethyl)benzyl)-N-(6-(((1-amino-5,7-dimethylisoquinolin-6-yl)methyl)amino)pyrimidin-4-yl)nitrous amide], for which the EC50 under setting [1] was in the range of 10 to 100 nM.

For `Cc1cc2c(N)nccc2c(C)c1CNc1cc(NCc2ccc(C(F)(F)n3cccn3)cc2)ncn1` [Example 382, N^4-((1-amino-5,7-dimethylisoquinolin-6-yl)methyl)-N^6-(4-(difluoro(1H-pyrazol-1-yl)methyl)benzyl)pyrimidine-4,6-diamine], the 50% effective concentration (EC50) under setting [1] was in the range of 1 to 10 nM.

`Cc1cc2c(N)nccc2c(C)c1CNc1cc(NCc2ccc(Cn3cccn3)c(C(F)(F)F)c2)ncn1` [Example 383, N^4-(4-((1H-pyrazol-1-yl)methyl)-3-(trifluoromethyl)benzyl)-N^6-((1-amino-5,7-dimethylisoquinolin-6-yl)methyl)pyrimidine-4,5-diamine]: the concentration giving a half-maximal response (EC50) under setting [1] was less than 1 nM.

Turning to `Cc1cc2c(N)nccc2c(C)c1CNc1cc(NCc2ccc(Cn3cccn3)cc2F)cnn1` [Example 385, N^5-(4-((1H-pyrazol-1-yl)methyl)-2-fluorobenzyl)-N^3-((1-amino-5,7-dimethylisoquinolin-6-yl)methyl)pyridazine-3,5-diamine], the concentration giving a half-maximal response (EC50) under setting [1] was less than 1 nM.

Regarding `Cc1cc2c(N)nccc2c(C)c1CNc1cc(OCc2cn3nc(C4CC4)ccc3n2)nc(C(F)(F)F)n1` [Example 389, 6-(((6-((6-cyclopropylimidazo[1,2-b]pyridazin-2-yl)methoxy)-2-(trifluoromethyl)pyrimidin-4-yl)amino)methyl)-5,7-dimethylisoquinolin-1-amine], the EC50 under setting [1] lay within 10 to 100 nM.

Consider `Cc1cc2c(N)nccc2c(C)c1CNc1nccc2c1cnn2Cc1cn2cc(C3CC3)cnc2n1` [Example 393, 6-(((1-((6-cyclopropylimidazo[1,2-a]pyrimidin-2-yl)methyl)-1H-pyrazolo[4,3-c]pyridin-4-yl)amino)methyl)-5,7-dimethylisoquinolin-1-amine], for which the EC50 under setting [1] lay in the range of 100 to 1000 nM.

For `Cc1cc2c(N)nccc2c(C)c1CNc1cc(OCc2cn3nc(C4CC4)cc(CN4CCCC4)c3n2)ncn1` [Example 394, 6-(((6-((6-cyclopropyl-8-(pyrrolidin-1-ylmethyl)imidazo[1,2-b]pyridazin-2-yl)methoxy)pyrimidin-4-yl)amino)methyl)-5,7-dimethylisoquinolin-1-amine], the EC50 under setting [1] is less than 1 nM.

With `Cc1cc2c(N)nccc2c(C)c1CNc1cc(OCc2cc3cc(C4CC4)ccc3s2)ncn1` [Example 395, 6-(((6-((5-cyclopropylbenzo[b]thiophen-2-yl)methoxy)pyrimidin-4-yl)amino)methyl)-5,7-dimethylisoquinolin-1-amine], the concentration giving a half-maximal response (EC50) under setting [1] fell in the range of 10 to 100 nM.

The record behind these values is patent US20260374754A1, “N-((ISOQUINOLIN-6-YL)METHYL)-1H-PYRAZOLE-4-CARBOXAMIDE DERIVATIVES AS PLASMA KALLIKREIN INHIBITORS FOR THE TREATMENT OF HEREDITARY ANGIODEMA” (Takeda Pharmaceutical Company Limited, priority 2022, published 2026).
